21 compounds from patent US20160002204A1 (Board of Regents, The University of Texas System, priority 2014, published 2016) can be followed below.

pEC50, pIC50: −log10 of the molar value. Several values for one entry are separate records, joined by “and”; a condition that tells them apart may be missing. Equal entries are not always repeated.

One assay relates to A549 cells. The experiment in a line: A549 proliferation (viability) assay, Cell Titer Fluor, 72 hours. It is filed as cell-based. The settings on record: Homo sapiens. In a few lines: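 Compound was added to A549 cells (1000/well, pre-grown 24 h in RPMI 1640 plus 10% dialyzed FBS) at 0.5% DMSO and left 72 h under 37 °C, 5% CO2, ambient O2. Live-cell fluorescence (Cell Titer Fluor) gave the EC50.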

Assay [1] has as its target T1, GLS1 (purified recombinant human GAC) (Homo sapiens, UniProt O94925).
T1 sequence (O94925 55-598 isoform O94925-3 limits assumed): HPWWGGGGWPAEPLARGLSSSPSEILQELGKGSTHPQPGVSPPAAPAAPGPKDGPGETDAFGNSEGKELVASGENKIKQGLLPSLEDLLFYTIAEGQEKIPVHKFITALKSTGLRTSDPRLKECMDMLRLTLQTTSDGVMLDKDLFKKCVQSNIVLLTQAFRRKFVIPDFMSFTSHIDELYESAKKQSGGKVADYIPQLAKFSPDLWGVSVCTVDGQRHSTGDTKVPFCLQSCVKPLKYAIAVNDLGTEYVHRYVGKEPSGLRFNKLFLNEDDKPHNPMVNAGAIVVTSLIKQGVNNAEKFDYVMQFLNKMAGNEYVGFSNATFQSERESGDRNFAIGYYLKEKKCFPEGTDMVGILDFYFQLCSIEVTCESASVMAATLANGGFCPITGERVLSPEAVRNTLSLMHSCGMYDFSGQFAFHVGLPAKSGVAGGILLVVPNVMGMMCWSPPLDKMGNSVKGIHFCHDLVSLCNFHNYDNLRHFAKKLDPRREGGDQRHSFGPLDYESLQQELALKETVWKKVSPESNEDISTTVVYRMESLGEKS
Description: GLS1 enzymatic activity assay (dual-coupled, Amplex UltraRed/resorufin). It is filed as biochemical. The method, boiled down:
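GAC activity measured by coupling glutamate to glutamate oxidase and HRP, generating resorufin from Amplex UltraRed. Enzyme (2 nM) preincubated with 50 mM potassium phosphate 10 min at room temperature, then inhibitor 10 min; 1 mM glutamine substrate, 1% DMSO. Fluorescence 530/590 nm, kinetic or 20-min endpoint; IC50 from four-parameter logistic fit.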

By pEC50 is commonly meant the EC50 on a negative log10 scale, so that one unit is a factor of ten. A lower pEC50 goes with a large EC50. By pIC50 is commonly meant the IC50 on a negative log10 scale, so that one unit is a factor of ten. As for `Cc1ccc(CNC(=O)c2cn(CC(F)CCn3ncc(NC(=O)CC4CCC4)cc3=O)nn2)cn1` (stereo not drawn) [Example 402, 1-{4-[4-(2-cyclobutylacetamido)-6-oxo-1,6-dihydropyridazin-1-yl]-2-fluorobutyl}-N-[(6-methylpyridin-3-yl)methyl]-1H-1,2,3-triazole-4-carboxamide], in the assay on A549 cells, the pEC50 was 5.30 to 6.30. Besides, the negative-log IC50 (pIC50) in assay [1] is 6.30 to 7.00.
As for `Cc1ccc(CNC(=O)c2cn(CC(F)CCn3ccc(NC(=O)CC4CCCO4)cc3=O)nn2)cn1` (stereo not drawn) [Example 200, 1-(2-fluoro-4-{2-oxo-4-[2-(oxolan-2-yl)acetamido]-1,2-dihydropyridin-1-yl}butyl)-N-[(6-methylpyridin-3-yl)methyl]-1H-1,2,3-triazole-4-carboxamide], in the assay with A549 cells, the negative-log EC50 (pEC50) was 5.30 to 6.30. Further, the pIC50 in assay [1] was 6.30 to 7.00.
The like results for `O=C(Cc1ccccc1)Nc1ccn(CCC(F)Cn2cc(C(=O)NCc3cccc(OC(F)(F)F)c3)nn2)c(=O)c1` (stereo not drawn) [Example 134, 1-{2-fluoro-4-[2-oxo-4-(2-phenylacetamido)-1,2-dihydropyridin-1-yl]butyl}-N-{[3-(trifluoromethoxy)phenyl]methyl}-1H-1,2,3-triazole-4-carboxamide] were, in that order, greater than 7.00 and greater than 7.00.
In the assay on A549 cells, `O=C(NCc1cccc(OC(F)(F)F)c1)c1cn(CC(F)CCn2ccc(NC(=O)[C@@H](O)c3ccccc3)c(F)c2=O)nn1` (stereo partly drawn) [Example 286, 1-(2-fluoro-4-{3-fluoro-4-[(2S)-2-hydroxy-2-phenylacetamido]-2-oxo-1,2-dihydropyridin-1-yl}butyl)-N-{[3-(trifluoromethoxy)phenyl]methyl}-1H-1,2,3-triazole-4-carboxamide] had a pEC50 greater than 7.00. Further, the negative-log IC50 (pIC50) in assay [1] was greater than 7.00.
In turn, `Cc1ccn(CCCCn2cc(C(=O)NCc3cccc(OC(F)(F)F)c3)nn2)c(=O)c1` [Example 11, 1-(4-(4-methyl-2-oxopyridin-1(2H)-yl)butyl)-N-(3-(trifluoromethoxy)benzyl)-1H-1,2,3-triazole-4-carboxamide] had a pEC50 with A549 cells of less than 5.30. In addition, the negative logarithm of the IC50 (pIC50) in assay [1] was 5.30 to 6.30.
The matching figures for `O=C(Cc1ccsc1)Nc1ccn(CCCCn2cc(C(=O)NCc3cccc(OC(F)(F)F)c3)nn2)c(=O)c1` [Example 203, 1-(4-{2-oxo-4-[2-(thiophen-3-yl)acetamido]-1,2-dihydropyridin-1-yl}butyl)-N-{[3-(trifluoromethoxy)phenyl]methyl}-1H-1,2,3-triazole-4-carboxamide]: 6.30 to 7.00 and greater than 7.00.
The matching figures for `O=C(CC1CCC(F)(F)CC1)Nc1ccn(CCCCn2cc(C(=O)NCc3cccc(OC(F)(F)F)c3)nn2)c(=O)c1` [Example 166, 1-(4-{4-[2-(4,4-difluorocyclohexyl)acetamido]-2-oxo-1,2-dihydropyridin-1-yl}butyl)-N-{[3-(trifluoromethoxy)phenyl]methyl}-1H-1,2,3-triazole-4-carboxamide]: greater than 7.00 and greater than 7.00.
`O=C(Nc1ccn(CCCCc2nnc(C(=O)NCc3ccccn3)s2)c(=O)n1)OCc1ccccc1` [Example 120, benzyl N-[2-oxo-1-(4-{5-[(pyridin-2-ylmethyl)carbamoyl]-1,3,4-thiadiazol-2-yl}butyl)-1,2-dihydropyrimidin-4-yl]carbamate] showed a negative-log EC50 (pEC50) with A549 cells of 5.30 to 6.30. For the same compound, the negative-log IC50 (pIC50) in assay [1] was 5.30 to 6.30 and 6.30 to 7.00.
Compound `CC(C)CC(=O)Nc1ccn(CCCCn2cc(C(=O)NCC3CCCCC3)nn2)c(=O)c1` [Example 39, N-(cyclohexylmethyl)-1-{4-[4-(3-methylbutanamido)-2-oxo-1,2-dihydropyridin-1-yl]butyl}-1H-1,2,3-triazole-4-carboxamide] gave a pEC50 in the assay on A549 cells of 5.30 to 6.30. Also, the pIC50 in assay [1] is 6.30 to 7.00.
The matching figures for `CC(C)COC(=O)Nc1ccn(CCC(F)Cn2cc(C(=O)NCc3cc(C(F)(F)F)ccn3)nn2)c(=O)n1` (stereo not drawn) [Example 490, 2-methylpropyl N-(1-{3-fluoro-4-[4-({[4-(trifluoromethyl)pyridin-2-yl]methyl}carbamoyl)-1H-1,2,3-triazol-1-yl]butyl}-2-oxo-1,2-dihydropyrimidin-4-yl)carbamate]: 6.30 to 7.00 and greater than 7.00.
The matching figures for `O=C(Nc1ccn(CCC(F)Cn2cc(C(=O)NCc3ccc(C(F)(F)F)nc3)nn2)c(=O)c1F)OC1CCC1` (stereo not drawn) [Example 399, cyclobutyl N-(3-fluoro-1-{3-fluoro-4-[4-({[6-(trifluoromethyl)pyridin-3-yl]methyl}carbamoyl)-1H-1,2,3-triazol-1-yl]butyl}-2-oxo-1,2-dihydropyridin-4-yl)carbamate]: 6.30 to 7.00 and 6.30 to 7.00.
Consider `O=C(CN1CCCC(CO)C1)Nc1ccn(CCC(F)Cn2cc(C(=O)NCc3cccc(OC(F)(F)F)c3)nn2)c(=O)c1` (stereo not drawn) [Example 257, 1-[2-fluoro-4-(4-{2-[3-(hydroxymethyl)piperidin-1-yl]acetamido}-2-oxo-1,2-dihydropyridin-1-yl)butyl]-N-{[3-(trifluoromethoxy)phenyl]methyl}-1H-1,2,3-triazole-4-carboxamide], for which the negative logarithm of the EC50 (pEC50) in the assay with A549 cells is 5.30 to 6.30. For the same compound, the pIC50 in assay [1] is greater than 7.00.
The compound `CO[C@H](C(=O)Nc1ccn(CCC(F)Cn2cc(C(=O)NCc3cccc(OC(F)(F)F)c3)nn2)c(=O)c1)c1ccccc1` (stereo partly drawn) [Example 184, 1-(2-fluoro-4-{4-[(2S)-2-methoxy-2-phenylacetamido]-2-oxo-1,2-dihydropyridin-1-yl}butyl)-N-{[3-(trifluoromethoxy)phenyl]methyl}-1H-1,2,3-triazole-4-carboxamide] gave a pEC50 with A549 cells greater than 7.00. The pIC50 in assay [1] is greater than 7.00.
Regarding `O=C(Cc1ccccc1)Nc1ccn(CCC(F)Cn2cc(C(=O)NCc3cc(C(F)(F)F)ccn3)nn2)c(=O)c1` (stereo not drawn) [Example 164, 1-{2-fluoro-4-[2-oxo-4-(2-phenylacetamido)-1,2-dihydropyridin-1-yl]butyl}-N-{[4-(trifluoromethyl)pyridin-2-yl]methyl}-1H-1,2,3-triazole-4-carboxamide], the pEC50 in the assay on A549 cells was 6.30 to 7.00. For the same compound, in assay [1], the negative logarithm of the IC50 (pIC50) is greater than 7.00.
The matching figures for `C[C@@H]1CCN(C(=O)C(=O)Nc2ccn(CCC(F)Cn3cc(C(=O)NCc4cc(OC(F)(F)F)ccc4F)nn3)c(=O)c2F)C1` (stereo partly drawn) [Example 431, 1-[2-fluoro-4-(3-fluoro-4-{2-[(3R)-3-methylpyrrolidin-1-yl]-2-oxoacetamido}-2-oxo-1,2-dihydropyridin-1-yl)butyl]-N-{[2-fluoro-5-(trifluoromethoxy)phenyl]methyl}-1H-1,2,3-triazole-4-carboxamide]: greater than 7.00 and greater than 7.00.
`O=C(Cc1cccnc1)Nc1ccn(CCCCc2nnc(NC(=O)Cc3ccccc3)s2)c(=O)n1` [Example 82, N-[5-(4-{2-oxo-4-[2-(pyridin-3-yl)acetamido]-1,2-dihydropyrimidin-1-yl}butyl)-1,3,4-thiadiazol-2-yl]-2-phenylacetamide]: the pEC50 in the assay with A549 cells was less than 5.30. Also, in assay [1], the negative-log IC50 (pIC50) is greater than 7.00.
`CC(NC(=O)c1cn(CCCCn2ccc(NC(=O)CC3CCCCC3)cc2=O)nn1)c1cccc(OC(F)(F)F)c1` (stereo not drawn) [Example 193, 1-{4-[4-(2-cyclohexylacetamido)-2-oxo-1,2-dihydropyridin-1-yl]butyl}-N-{1-[3-(trifluoromethoxy)phenyl]ethyl}-1H-1,2,3-triazole-4-carboxamide] gave a pEC50 with A549 cells of 5.30 to 6.30. The pIC50 in assay [1] is 6.30 to 7.00.
The like results for `O=C(Cc1ccccc1)Nc1ccn(CCCCn2cc(C(=O)NCc3ccccc3)nn2)c(=O)c1` [Example 2, N-benzyl-1-(4-(2-oxo-4-(2-phenylacetamido)pyridin-1(2H)-yl)butyl)-1H-1,2,3-triazole-4-carboxamide] were, in that order, 5.30 to 6.30 and 6.30 to 7.00.
The matching figures for `O=C(Cc1ccccc1)Nc1ccn(CCC(F)Cn2cc(C(=O)NCc3cc(Cl)ccc3F)nn2)c(=O)c1` (stereo not drawn) [Example 216, N-[(5-chloro-2-fluorophenyl)methyl]-1-{2-fluoro-4-[2-oxo-4-(2-phenylacetamido)-1,2-dihydropyridin-1-yl]butyl}-1H-1,2,3-triazole-4-carboxamide]: 6.30 to 7.00 and greater than 7.00.
The like results for `O=C(Cc1cccc(OC(F)(F)F)c1)Nc1ccn(CCCCc2nnc(C(=O)NCc3cc(OC(F)(F)F)ccc3F)s2)c(=O)c1` [Example 459, N-{[2-fluoro-5-(trifluoromethoxy)phenyl]methyl}-5-[4-(2-oxo-4-{2-[3-(trifluoromethoxy)phenyl]acetamido}-1,2-dihydropyridin-1-yl)butyl]-1,3,4-thiadiazole-2-carboxamide] were, in that order, greater than 7.00 and greater than 7.00.
In the assay with A549 cells, `Cc1ccc(CNC(=O)c2cn(C[C@@H](F)CCn3ccc(NC(=O)Cc4ccccc4)c(F)c3=O)nn2)cn1` [Example 124, (S)-1-(2-fluoro-4-(3-fluoro-2-oxo-4-(2-phenylacetamido)pyridin-1(2H)-yl)butyl)-N-((6-methylpyridin-3-yl)methyl)-1H-1,2,3-triazole-4-carboxamide] had a negative logarithm of the EC50 (pEC50) of 5.30 to 6.30. Also, the pIC50 in assay [1] was 6.30 to 7.00.
